The subject of experiment [1] is HD larvae (Elav^c155-GAL4; UAS-Htt-Q138/+). The experiment can be described thus: In vivo rescue: viability of HD larvae after 5-day drug dosing in liquid culture. The following applies: larvae reared in liquid culture, 5-day dosing, compared to DMSO-treated controls. Details: species or system Drosophila. The procedure:
In vivo Rescue studies: For small molecule in vivo rescue studies, Elav^c155; UAS-Htt-Q138-mRFP^1, UAS-mCD8-GFP/+1st instar larvae were collected en-masse and dispensed into liquid yeast media (10 larvae/well) containing therapeutic agents at three different concentrations as described in the results (n=8 replicas/concentration). Cultures were reared at 21° C. and larval viability was assessed after 5 days and the mean number of living Htt138Q larvae (i.e. GFP^+, Htt138QmRFP^+, and mobile) was tabulated, and expressed as a percentage of total larvae/well. For genetic rescue studies with lkb1, two Htt138Q strains were utilized: a strong expressing line, UAS-Htt138QmRFP^1 which is pharate lethal when crossed to Elav^c155, and a weaker expressing line, UAS-Htt138QmRFP^2 which survives to adulthood and is viable for a number of weeks. Using the strong line, pharate lethality at 25° C. was calculated after lkb1 (lkb1^4B1-11 and lkb1^4A4-2 alleles) was introduced into an Elav^c155, UAS-Htt/+background. Lkb1^4B1-11 is a premature truncation allele (Q98>Stop), and lkb1^4A4-2 is an EMS null allele (589 b.p. deletion removing 150 b.p. of the 5′ UTR, the start codon and the beginning of the open reading frame). For Top1 in vivo analysis, Elav^c155, Top^112 recombinants were generated and crossed to UAS-Htt138QmRFP^1.
To further examine the RNAi/small molecule screen hits, we assayed in vivo efficacy by testing their ability to rescue lethality in our Drosophila HD model. […] Specific inhibitors of Lkb1 were not available for in vivo testing.

In the next experiment the test system is HD model strain mice. Description: Morris water maze assay in HD model strain mice. The experiment is classed as in vivo, mouse. Particulars: treated from 4 weeks, tested at 8 weeks of age, vs untreated HD mice. From the text: Mouse strains: Mouse strain names provided herein adhere to the Guidelines for Nomenclature of Mouse and Rat Strains, Revised October 2011, International Committee on Standardized Genetic Nomenclature for Mice, accessible at www.informatics.jax.org/mgihome/nomen/strains.shtml. Official gene symbols, or, where appropriate, official mouse strain names of the Jackson Laboratory (www.jax.org, e.g., the Jackson Laboratory Mice Database at jaxmice.jax.org) are used. There are numerous HD mouse strains suitable for candidate compound or nucleic acid construct screening, and for pre-clinical evaluations of candidates for the treatment of HD such as the HD model strains R6/2, R6/1, N171-82Q, CAG140, HdhQ111, BACHD, and CAG150 (Crook Z R, Housman D (2011) Huntington's disease: can mice lead the way to treatment? Neuron. 69:423-35; the entire contents of which are incorporated herein by reference). The HD model strains differ in their manifestations and time line of HD-like symptoms, e.g., motor and cognitive dysfunctions. […]
Morris water maze assay: The water maze assay measures spatial learning in mice. […] The sixth day has a single-trial probe test without the platform, and the time spent in each quadrant is recorded. […] The navigation of the mice is tracked by video camera, and the escape latency to the platform is recorded. […]

The test system of another experiment is gap junction. The following applies: cited from earlier work.

SMILES strings stand for the structures.

The source of these data is patent publication US20130303562A1, “CHEMICAL AND RNAI SUPPRESSORS OF NEUROTOXICITY IN HUNTINGTON'S DISEASE” (priority 2010, published 2013).

Turning to `CC1(C)[C@@H](OC(=O)CCC(=O)O)CC[C@]2(C)[C@H]3C(=O)C=C4[C@@H]5C[C@@](C)(C(=O)O)CC[C@]5(C)CC[C@@]4(C)[C@]3(C)CC[C@@H]12` [Carbenoxolone], the “Viability of Htt-Q138 expressing larvae / rescue of Htt-Q138 lethality” value was “comparable activity” in experiment [1] and “rescue HD toxicity in vivo” in experiment [1] (listed as carbenoxolone). Also, the “Impairment of cognitive capabilities (latency to escape, water maze)” value in the experiment with HD model strain mice was “lesser degree of impairment”. The Gap junction activity result with gap junction is recorded as “block gap junction activity”.
